Measurements taken from patent US4073903A, “3-Desacetoxymethyl-3- 5'(1-methyltetrazolyl)thio!methyl-7- 1-(4-nitr oimidazolyl)acetyl!aminocephalosporanic acid” (Pierrel S.p.A., priority 1975, dated 1978).
In brackets after ≈: the same amount, converted by molar mass. Where two headings read alike, the source gives them in different places.

Columns and labels:
Klebsiella pneumoniae [1] = assay: MIC against clinical isolates, broth dilution test (Table II); conditions: Klebsiella pneumoniae, 24 h
Escherichia coli [2] = assay: Treatment of mice systemically infected with Escherichia coli (Table V); conditions: in Mus musculus, 168 h, read-out: ED50 per treatment
Salmonella heidelberg = assay: MIC against Ampicillin-resistant clinical isolates, broth dilution test (Table IV); conditions: Salmonella enterica, 24 h, read-out: Minimun inhibitory concentration (MIC)
Klebsiella pneumoniae [3] = conditions: in Mus musculus, 168 h, read-out: ED50 per treatment
Salmonella essen = assay: MIC against Ampicillin-resistant clinical isolates, broth dilution test (Table IV); conditions: Salmonella enterica, 24 h, read-out: Minimun inhibitory concentration (MIC)
Escherichia coli [4] = assay: MIC against clinical isolates, broth dilution test (Table III); conditions: Escherichia coli, 24 h
Salmonella wien = assay: MIC against Ampicillin-resistant clinical isolates, broth dilution test (Table IV); conditions: Salmonella enterica, 24 h

MIC (Klebsiella pneumoniae [1]; read-out: Minimum inhibitory concentration (MIC), clinical isolate LRP 128): 25 µg/mL (≈ 55 µM) | MIC (Klebsiella pneumoniae [1]; read-out: Minimum inhibitory concentration (MIC), clinical isolate LRP 129): 3.12 µg/mL (≈ 6.86 µM) | MIC (Klebsiella pneumoniae [1]; read-out: Minimum inhibitory concentration (MIC), clinical isolate LRP 130): 25 µg/mL (≈ 55 µM) | MIC (Klebsiella pneumoniae [1]; read-out: Minimum inhibitory concentration (MIC), clinical isolate LRP 131): 25 µg/mL (≈ 55 µM) | MIC (Klebsiella pneumoniae [1]; read-out: Minimum inhibitory concentration (MIC), clinical isolate LRP 132): 1.56 µg/mL (≈ 3.43 µM) | MIC (Klebsiella pneumoniae [1]; read-out: Minimum inhibitory concentration (MIC), clinical isolate LRP 133): 1.56 µg/mL (≈ 3.43 µM) | MIC (Klebsiella pneumoniae [1]; read-out: Minimum inhibitory concentration (MIC), clinical isolate LRP 134): 3.12 µg/mL (≈ 6.86 µM) | MIC (Klebsiella pneumoniae [1]; read-out: Minimum inhibitory concentration (MIC), clinical isolate LRP 135): 25 µg/mL (≈ 55 µM) | MIC (Klebsiella pneumoniae [1]; read-out: Minimum inhibitory concentration (MIC), clinical isolate LRP 136): 50 µg/mL (≈ 110 µM) | MIC (Klebsiella pneumoniae [1]; read-out: Minimum inhibitory concentration (MIC), clinical isolate LRP 137): 0.25 µg/mL (≈ 0.55 µM) | MIC (Salmonella heidelberg): 12.5 µg/mL (≈ 27.5 µM) | MIC (Salmonella essen): 6.25 µg/mL (≈ 13.8 µM) | MIC (Escherichia coli [4]; read-out: Minimum inhibitory concentration (MIC), clinical isolate LRP 87): 25 µg/mL (≈ 55 µM) | MIC (Escherichia coli [4]; read-out: Minimum inhibitory concentration (MIC), clinical isolate LRP 94): 6.25 µg/mL (≈ 13.8 µM) | MIC (Escherichia coli [4]; read-out: Minimum inhibitory concentration (MIC), clinical isolate LRP 96): 6.25 µg/mL (≈ 13.8 µM) | MIC (Escherichia coli [4]; read-out: Minimum inhibitory concentration (MIC), clinical isolate LRP 110): 6.25 µg/mL (≈ 13.8 µM) | MIC (Escherichia coli [4]; read-out: Minimum inhibitory concentration (MIC), clinical isolate LRP 143): 1.56 µg/mL (≈ 3.43 µM) | MIC (Escherichia coli [4]; read-out: Minimum inhibitory concentration (MIC), clinical isolate LRP 150): 12.5 µg/mL (≈ 27.5 µM) | MIC (Escherichia coli [4]; read-out: Minimum inhibitory concentration (MIC), clinical isolate LRP 151): 12.5 µg/mL (≈ 27.5 µM) | MIC (Escherichia coli [4]; read-out: Minimum inhibitory concentration (MIC), clinical isolate LRP 152): 100 µg/mL (≈ 220 µM) | MIC (Escherichia coli [4]; read-out: Minimum inhibitory concentration (MIC), clinical isolate LRP 154): 3.12 µg/mL (≈ 6.86 µM) | MIC (Escherichia coli [4]; read-out: Minimum inhibitory concentration (MIC), clinical isolate LRP 155): 1.56 µg/mL (≈ 3.43 µM) | MIC (Escherichia coli [4]; read-out: Minimum inhibitory concentration (MIC), clinical isolate LRP 156): 6.25 µg/mL (≈ 13.8 µM) | MIC (Escherichia coli [4]; read-out: Minimum inhibitory concentration (MIC), clinical isolate LRP 158): 25 µg/mL (≈ 55 µM) | MIC (Escherichia coli [4]; read-out: Minimum inhibitory concentration (MIC), clinical isolate LRP 159): 1.56 µg/mL (≈ 3.43 µM) | MIC (Escherichia coli [4]; read-out: Minimum inhibitory concentration (MIC), clinical isolate LRP 163): 3.12 µg/mL (≈ 6.86 µM) | MIC (Salmonella wien; read-out: Minimun inhibitory concentration (MIC), Ampicillin-resistant clinical isolate LRP 138): 25 µg/mL (≈ 55 µM) | MIC (Salmonella wien; read-out: Minimun inhibitory concentration (MIC), Ampicillin-resistant clinical isolate LRP 140): 50 µg/mL (≈ 110 µM) | MIC (Salmonella wien; read-out: Minimun inhibitory concentration (MIC), Ampicillin-resistant clinical isolate LRP 141): 100 µg/mL (≈ 220 µM)
SMILES: Cc1nnc(SCC2=C(C(=O)O)N3C(=O)[C@@H](NC(=O)Cn4cnnn4)[C@H]3SC2)s1 [Cefazolin, reference compound]
ED50 (Escherichia coli [2]): 35 mg/kg | ED50 (Klebsiella pneumoniae [3]): 90 mg/kg
